What all share (format): in vivo, rat
Experiment [1] concerns pituitary hormone levels in plasma. Description: Pituitary hormone levels in plasma after GALP administration into the third ventricle. To be noted: Wistar rats. On the procedure:
Effects of GALP administration into the third ventricle on pituitary hormone levels in plasma were examined. Briefly, adult male Wistar rats (body weight: 350-380 g at the time of surgery) were anesthetized by intraperitoneal administration of 50 mg/kg pentobarbital and fixed in a stereotaxic apparatus for rat brain. The incisor bar was set 3.3 mm below the interaural line. The skull surface was exposed, and a hole was drilled in the skull with a dental drill in order to implant a guide cannula AG-8 (inside dia. 0.4 mm, outside dia. 0.5 mm; Eicom) in the third ventricle. Further, four anchor screws were embedded around the hole. A stainless guide cannula (AG-12) was inserted so that its tip was located above the third ventricle. The stereotaxic coordinates were set as follows according to the atlas of Paxinos and Watson (1998): AP: −0.8 mm, L: 0.0 mm, […] from bregma. The guide cannula was fixed onto the skull with instant glue, dental cement and the anchor screws. […]
The rats were allowed about one week for recovery after the implantation of the guide cannula. […] Growth hormone (GH), thyroid-stimulating hormone (TSH), follicle-stimulating hormone (FSH), LH, prolactin and adorenocorticotropic hormone (ACTH) contained in the plasma were quantified by radioimmunoassay (GH, TSH, FSH, LH and prolactin; Amersham) (ACTH; Mitsubishi Kagaku).

For experiment [2], the system named is blood LH levels. Briefly: Blood LH level time course after intraventricular administration in freely moving Wistar rats. To be noted: for blood LH level compared with the control group: third ventricle, 0-60 min. On the procedure:
A guide cannula was implanted in adult male Wistar rats treated in the same manner as described in Example 1. The rats were allowed about one week for recovery from the surgery. Then, they received another surgery so that blood samples can be taken from them moving freely. Briefly, the guide cannula-implanted rat was anesthetized by intraperitoneal administration of […] pentobarbital and fixed on an anatomical pad in face-up position. Then, the left jugular vein was exposed. A polyethylene tube SP35 (inside dia. 0.5 mm, outside dia. 0.9 mm; Natsume Seisakusho) was cut to give an about 30 cm length, filled with 200 U/ml heparin-containing physiological saline, inserted into the jugular vein about 4.5 cm, and fixed. The other end of the tube was passed subcutaneously through dorsal skin and exposed from the neck (dorsal).
After one night from the surgery, 300 μl of blood was collected from each rat using a 1 ml injection syringe for tuberculin and a 25-gauge injection needle (both Terumo Corp.) prior to the administration of rat GALP (a peptide consisting of the amino acid sequence as shown in SEQ ID NO: 33). In order to prevent blood coagulation, 10 μl of 300 KIU/ml aprotinin solution containing 3 mg/ml EDTA was added in advance into the injection syringe. The cap nut and the dummy cannula installed on the rat skull were removed. Instead of them, a stainless microinjection cannula (inside dia. 0.17 mm, outside dia. 0.35 mm; Eicom) connected with a Teflon tube (length 50 cm, inside dia. 0.1 mm, outside dia. 0.35 mm; Eicom) was inserted into the guide cannula. The length of the microinjection cannula was adjusted in advance so that 1 mm of it tip was exposed from the guide cannula. One end of the Teflon tube was connected with a microsyringe pump. […] Five minutes after the completion of the injection, the microinjection cannula was removed, and a dummy cannula was fixed again with a cap nut. […] The LH levels in the plasma were measured by radioimmunoassay (Amersham).

Experiment [3] concerns blood LH levels. Description: Blood LH levels after intraventricular GALP in Zucker fatty and Zucker lean rats. To be noted: 1 nmol third ventricle. On the procedure:
Effects of GALP administration into the third ventricle on LH levels in plasma were examined using Zucker obese rats having an abnormality of Leptin receptor. Briefly, adult male Zucker obese rats (body weights at the time of surgery: fatty: 410-430 g; lean: 290-310 g) were anesthetized by intraperitoneal administration of 50 mg/kg pentobarbital and fixed in a stereotaxic apparatus for rat brain. The incisor bar was set 3.3 mm below the interaural line. The skull surface was exposed, and a hole was drilled in the skull with a dental drill in order to implant a guide cannula AG-8 (inside dia. 0.4 mm, outside dia. 0.5 mm; Eicom) in the third ventricle. Further, four anchor screws were embedded around the hole. A stainless guide cannula (AG-12) was inserted so that its tip was located above the third ventricle. The stereotaxic coordinates were set as follows according to the atlas of Paxinos and Watson (1998): for Zucker fatty, AP: −1.00 mm, L: 0.0 mm, H: 5.6 mm from bregma, and for Zucker lean, AP: −0.9 mm, L: 0.0 mm, H: 5.4 mm from bregma. The guide cannula was fixed onto the skull with instant glue, dental cement and the anchor screws. […]
The rats were allowed about one week for recovery after the implantation of the guide cannula. […] The LH levels in the plasma were measured by radioimmunoassay (Amersham).

With “rat GALP (APAHRGRGGWTLNSAGYLLGPVLHLSSKANQGRKTDSALEILDLWKAIDGLPYSRSPRMT; Rat)”, the “blood LH level compared to the control group” value in experiment [1] (0.5 nmol and 5 nmol intraventricular, 10 min after injection) is “significant increase”. For the same substance, the “other pituitary hormone levels in blood (FSH, GH, TSH, ACTH, prolactin)” value in experiment [1] (intraventricular, 5 nmol/rat) was “no other pituitary hormone levels were changed”. For the same substance, the figures for the “blood LH level compared with the control group” value in the experiment on blood LH levels [2] (1 nmol administration group) and in the experiment on blood LH levels [2] (5 nmol administration group) were “tendency to rise” and “significant rise”, respectively. Also, the “time of peak of blood LH rise after the administration” value in the experiment with blood LH levels [2] (5 nmol administration group) came to 30 min. The “blood LH levels compared with the control group” value with blood LH levels [3] (Zucker fatty rats, at 10, 20 and 30 min) is reported as “significant rise”; in the experiment on blood LH levels [3] (Zucker lean rats) it was “no significant rise”.
